Results on 53 compounds are retold here after ChEMBL document CHEMBL2163249, “Exploration of natural compounds as sources of new bifunctional scaffolds targeting cholinesterases and beta amyloid aggregation: the case of chelerythrine” (Bioorg Med Chem, 2012).

Assay [1] addresses Cholinesterase (Equus caballus) (UniProt P81908). To be noted: at 2 mg/mL.
Description: Inhibition of horse BChE at 2 mg/ml by Ellman's method
Assay [2] concerns the target Acetylcholinesterase (Electrophorus electricus) (UniProt O42275). To be noted: at 2 mg/mL.
Description: Inhibition of electric eel AChE at 2 mg/ml by Ellman's method

Each structure is given as a SMILES string.

Cholinesterase (Equus caballus), sequence (P81908 whole entry): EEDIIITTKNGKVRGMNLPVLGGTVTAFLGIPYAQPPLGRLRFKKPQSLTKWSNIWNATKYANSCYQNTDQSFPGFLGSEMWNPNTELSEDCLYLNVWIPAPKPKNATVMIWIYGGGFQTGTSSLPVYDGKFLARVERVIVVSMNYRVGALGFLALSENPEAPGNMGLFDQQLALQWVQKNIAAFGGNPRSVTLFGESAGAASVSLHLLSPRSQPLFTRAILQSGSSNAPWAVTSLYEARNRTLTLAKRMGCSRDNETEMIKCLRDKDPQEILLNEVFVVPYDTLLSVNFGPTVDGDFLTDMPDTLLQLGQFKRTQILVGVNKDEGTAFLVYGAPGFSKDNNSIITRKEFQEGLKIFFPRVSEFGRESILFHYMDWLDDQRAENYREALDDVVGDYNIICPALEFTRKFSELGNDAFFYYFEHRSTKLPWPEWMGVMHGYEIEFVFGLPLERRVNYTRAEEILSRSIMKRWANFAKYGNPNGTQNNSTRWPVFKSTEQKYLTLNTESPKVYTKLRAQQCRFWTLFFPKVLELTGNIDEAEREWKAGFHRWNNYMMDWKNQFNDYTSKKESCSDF
Acetylcholinesterase (Electrophorus electricus), sequence (O42275 24-633 limits assumed): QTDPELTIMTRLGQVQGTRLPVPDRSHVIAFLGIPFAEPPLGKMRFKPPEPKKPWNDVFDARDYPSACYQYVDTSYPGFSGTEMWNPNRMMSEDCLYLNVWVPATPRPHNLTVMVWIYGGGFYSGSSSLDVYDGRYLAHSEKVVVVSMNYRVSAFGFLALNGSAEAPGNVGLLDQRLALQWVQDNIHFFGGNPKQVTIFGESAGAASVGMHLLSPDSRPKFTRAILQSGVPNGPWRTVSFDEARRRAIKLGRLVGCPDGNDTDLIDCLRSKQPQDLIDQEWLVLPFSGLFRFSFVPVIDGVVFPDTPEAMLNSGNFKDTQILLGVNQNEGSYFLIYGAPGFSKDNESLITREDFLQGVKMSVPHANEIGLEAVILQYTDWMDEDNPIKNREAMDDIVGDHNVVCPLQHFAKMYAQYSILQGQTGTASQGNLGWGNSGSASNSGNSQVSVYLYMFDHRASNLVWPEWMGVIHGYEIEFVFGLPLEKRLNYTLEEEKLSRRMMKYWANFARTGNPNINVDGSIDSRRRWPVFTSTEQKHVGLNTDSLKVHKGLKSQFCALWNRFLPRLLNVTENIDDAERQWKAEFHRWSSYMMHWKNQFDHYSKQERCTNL

The inhibition is the relative decrease from the control value, in per cent. For the compound `C[C@H]1CC[C@@]2(OC1)O[C@H]1C[C@H]3[C@@H]4CC[C@@H]5C[C@@H](O)CC[C@]5(C)[C@H]4CC[C@]3(C)[C@H]1[C@@H]2C`, the inhibition in assay [1] is -2.96%; in assay [2], -3.09%.

Turning to `COc1cc(-c2oc3cc(O)cc(O)c3c(=O)c2O[C@@H]2O[C@H](CO)[C@@H](O)[C@H](O)[C@H]2O)ccc1O`, the inhibition was found to be 1.08% in assay [1] and 30.6% in assay [2].

With `C=C(C)[C@@H]1[C@H]2OC(=O)[C@@H]1[C@]1(O)C[C@H]3O[C@]34C(=O)O[C@H]2[C@]14C`, the results for the inhibition in assay [1] and in assay [2] were -3.55% and 11.4%, respectively.

For `C[C@@]12CCc3occc3[C@H]1CC[C@]13CC(=O)[C@H](CC[C@H]12)C3`, the inhibition in assay [1] is -0.09%; in assay [2], -5.73%.

Regarding `O=c1c(-c2ccc(O)cc2)coc2cc(O[C@@H]3O[C@H](CO)[C@@H](O)[C@H](O)[C@H]3O)ccc12`, the inhibition in assay [1] is -0.76%; in assay [2] it was 17.6%.

In the case of `CCCCCCCCCCCCCC(=O)O[C@@H]1[C@@H](C)[C@@]2(O)[C@@H](C=C(CO)C[C@@]3(O)C(=O)C(C)=C[C@@H]23)[C@H]2C(C)(C)[C@]12OC(C)=O`, the inhibition was -0.91% in assay [1] and 12.9% in assay [2].

In the case of `CC1=C(O)C(=O)C=C2C1=CC=C1[C@@]2(C)CC[C@@]2(C)[C@@H]3C[C@](C)(C(=O)O)CC[C@]3(C)CC[C@]12C`, the results for the inhibition in assay [1] and in assay [2] were 1.01% and 22.1%, respectively.

Turning to `CC(=O)O[C@H]1[C@H]2[C@@H](OC(=O)Cc3ccccc3)[C@@H](C)C[C@]2(OC(C)=O)C(=O)/C(C)=C/[C@@H]2[C@H](CC[C@@]13CO3)C2(C)C`, the inhibition in assay [1] was -5.46%; in assay [2], -2.46%.

Consider `CC1(C)CCC2=C(O1)c1ccccc1C(=O)C2=O`, for which the results for the inhibition in assay [1] and in assay [2] were 11.2% and -2.91%, respectively.

Take `CC1=CC(=O)C2=C(C)CC[C@@H]3[C@H](OC(=O)[C@H]3C)[C@@H]12`: the inhibition was 0.28% in assay [1] and -3.63% in assay [2].

Consider `COC(=O)/C(=C1/OC(=O)C(c2ccccc2)=C1O)c1ccccc1`, for which the inhibition in assay [1] came out at 0.35%; in assay [2], 4.9%.

For the compound `COC1=C[C@@H](C)[C@@H]2C[C@H]3OC(=O)C[C@H]4C(C)=C(OC)C(=O)[C@H]([C@@]2(C)C1=O)[C@@]34C`, the inhibition was found to be 4.69% in assay [1] and 24.7% in assay [2].

`COc1ccc(-c2cc(=O)c3ccc(O)cc3o2)cc1`: the figures for the inhibition in assay [1] and in assay [2] were 6.46% and 30.6%, respectively.

In the case of `O=c1c(-c2ccc(O)cc2)coc2cc(O[C@@H]3O[C@H](CO)[C@@H](O)[C@H](O)[C@H]3O)cc(O)c12`, the inhibition in assay [1] amounted to 1.82%; in assay [2], 24.6%.

In the case of `Cn1cnc2c1c(=O)[nH]c(=O)n2C`, the inhibition in assay [1] worked out at 3.88%; in assay [2] it was 39.4%.

For `O=C1c2c(O)cc(O)cc2O[C@H](c2ccc(O)c(O)c2)[C@H]1O`, the figures for the inhibition in assay [1] and in assay [2] were 0.97% and 17.8%, respectively.

In the case of `COc1cc(O)c2c(c1)oc(=O)c1c3cc(O)c(O)cc3oc21`, the inhibition in assay [1] is 11.1%; in assay [2] it was 11.8%.

In the case of `C[C@]1(C(=O)O)CCC[C@]2(C)c3cc(O)ccc3CC[C@@H]12`, the inhibition in assay [1] was -2.99%; in assay [2], -4.47%.

For `CCCC(=O)O[C@@H]1[C@@H](C)[C@@]2(O)[C@@H](C=C(CO)C[C@]3(O)C(=O)C(C)=C[C@@H]23)[C@@H]2C(C)(C)[C@]12OC(=O)CCC` (stereo in doubt; form 1), the inhibition was determined as 0.87% in assay [1] and 22.5% in assay [2].

Turning to `O=C(CCc1ccc(O)cc1)c1c(O)cc(O)cc1O`, the inhibition in assay [1] is 17%; in assay [2] it was -6.41%.

`COc1ccc([C@@H]2CC(=O)c3c(O)cc(O[C@@H]4O[C@H](CO)[C@@H](O)[C@H](O)[C@H]4O[C@@H]4O[C@@H](C)[C@H](O)[C@@H](O)[C@H]4O)cc3O2)cc1O`: the inhibition in assay [1] was determined as 0.1%; in assay [2] it was 4.86%.

For the compound `CC[C@@H]1C(=O)OC[C@@H]1Cc1cncn1C`, the inhibition was found to be 1.99% in assay [1] and 20% in assay [2].

`O=C1C[C@@H](c2ccc(O)cc2)Oc2cc(O[C@@H]3O[C@H](CO)[C@@H](O)[C@H](O)[C@H]3O)cc(O)c21`: the results for the inhibition in assay [1] and in assay [2] were -1.72% and 18.7%, respectively.

Regarding `C=C[C@@](C)(/C=C/c1ccc(O)cc1)CCC=C(C)C`, the inhibition in assay [1] is 13.4%; in assay [2], -7.92%.

Take `C=C(C)[C@H]1CN[C@H](C(=O)O)[C@H]1CC(=O)O`: the inhibition is 4.53% in assay [1] and -5.89% in assay [2].

`C[C@@H]1O[C@@H](OC[C@H]2O[C@@H](Oc3cc(O)c4c(c3)O[C@H](c3ccc(O)c(O)c3)CC4=O)[C@H](O)[C@@H](O)[C@@H]2O)[C@H](O)[C@H](O)[C@H]1O`: the figures for the inhibition in assay [1] and in assay [2] were 1.98% and 21.5%, respectively.

With `CCCCC[C@H](O)/C=C/[C@@H]1[C@@H](C/C=C\CCCC(=O)O)[C@@H](O)C[C@H]1O`, the inhibition in assay [1] was 5.03%; in assay [2] it was 12.9%.

Consider `C[C@@]12C(=O)OC(=O)[C@]1(C)[C@H]1CC[C@@H]2O1`, for which the inhibition in assay [1] was -2.13%; in assay [2], -7.81%.

`O=c1c(O)c(-c2ccc(O)cc2O)oc2cc(O)cc(O)c12`: the inhibition was -3.98% in assay [1] and 18.1% in assay [2].

On to `COC(=O)[C@H]1[C@H]2C[C@H]3c4[nH]c5cc(OC)ccc5c4CCN3C[C@H]2C[C@@H](OC(=O)c2cc(OC)c(OC)c(OC)c2)[C@@H]1OC`, for which the inhibition was -8.07% in assay [1] and -2.45% in assay [2].

With `O=C(CCc1ccc(O)cc1)c1c(O)cc(O)cc1O[C@@H]1O[C@H](CO)[C@@H](O)[C@H](O)[C@H]1O`, the inhibition is 5.38% in assay [1] and -6.94% in assay [2].

For the compound `O=C1C=C2C(=CCOC2O)O1` (stereo unspecified), the inhibition is -1.78% in assay [1] and 5.33% in assay [2].

Turning to `CN1C(=O)CC[C@H]1c1cccnc1`, the inhibition is -0.23% in assay [1] and 28.6% in assay [2].

Turning to `C[C@@H]1C[C@H]2CC[C@H](O2)[C@H](C)C(=O)O[C@@H](C)C[C@@H]2CC[C@@H](O2)[C@@H](C)C(=O)O[C@H](C)C[C@H]2CC[C@@H](O2)[C@H](C)C(=O)O[C@@H](C)C[C@@H]2CC[C@@H](O2)[C@@H](C)C(=O)O1`, the figures for the inhibition in assay [1] and in assay [2] were -1.31% and 16.4%, respectively.

Consider `CC1(C)[C@@H](O)CC[C@]2(C)[C@H]3C(=O)C=C4[C@@H]5C[C@@](C)(C(=O)O)CC[C@]5(C)CC[C@@]4(C)[C@]3(C)CC[C@@H]12`, for which the results for the inhibition in assay [1] and in assay [2] were 4.46% and -3.12%, respectively.

Take `CO[C@H]1C[C@H](O[C@H]2[C@H](C)[C@@H](O[C@@H]3O[C@H](C)C[C@H](N(C)C)[C@H]3OC(C)=O)[C@@H](C)C[C@@]3(CO3)C(=O)[C@H](C)[C@@H](OC(C)=O)[C@@H](C)[C@@H](C)OC(=O)[C@@H]2C)O[C@@H](C)[C@@H]1OC(C)=O`: the inhibition in assay [1] is -1.09%; in assay [2], 14.8%.

Turning to `COc1cc(/C=C/C(=O)O)ccc1O`, the inhibition in assay [1] was -0.02%; in assay [2] it was -1.29%.

As for `CC1(C)CCC[C@](C)([C@H]2CC[C@]3(C)[C@@H]2[C@H](O)C[C@@H]2[C@@]4(C)CC[C@H](O)C(C)(C)[C@@H]4CC[C@]23C)O1`, the inhibition in assay [1] amounted to 12.1%; in assay [2], 7.82%.

`OC[C@H]1O[C@@H](Oc2ccc(O)cc2)[C@H](O)[C@@H](O)[C@@H]1O`: the inhibition in assay [1] amounted to 6.63%; in assay [2] it was 9.16%.

For the compound `C[C@@H]1NCCc2cc(O)c(O)cc21`, the results for the inhibition in assay [1] and in assay [2] were -1.84% and 19.3%, respectively.

As for `COc1cccc2c1C(=O)c1c(O)c3c(c(O)c1C2=O)C[C@@](O)(C(=O)CO)C[C@@H]3O[C@H]1C[C@H](N)[C@H](O)[C@H](C)O1`, the inhibition amounted to 1.2% in assay [1] and 10.4% in assay [2].

Regarding `CN1CCc2cc3c(c4c2[C@H]1Cc1ccccc1-4)OCO3`, the inhibition was found to be 25.9% in assay [1] and 34.2% in assay [2].

Turning to `COc1cc2c(cc1OC)[C@@]13CC[N+]4([O-])CC5=CCO[C@H]6CC(=O)N2[C@H]1[C@H]6[C@H]5C[C@@H]34` (stereo partly specified), the figures for the inhibition in assay [1] and in assay [2] were -6.05% and 12.8%, respectively.

For the compound `CCCCC[C@H](O)/C=C/C1=C(CCCCCCC(=O)O)C(=O)CC1`, the inhibition in assay [1] was -1.44%; in assay [2], 15.6%.

In the case of `CCCCC[C@H](O)/C=C/[C@H]1[C@H](O)CC(=O)[C@@H]1CCCCCCC(=O)O`, the inhibition was -1.69% in assay [1] and 16.6% in assay [2].

In the case of `COC1=C(N)C(=O)c2nc(-c3nc(C(=O)O)c(C)c(-c4ccc(OC)c(OC)c4O)c3N)ccc2C1=O`, the inhibition in assay [1] is -5.44%; in assay [2], -2.66%.

For `C[C@H]1[C@H](OC(=O)CCC(=O)O)O[C@@H]2O[C@@]3(C)CC[C@H]4[C@H](C)CC[C@@H]1[C@@]24OO3`, the inhibition in assay [1] was 4.77%; in assay [2] it was -5.55%.

As to `O=c1cc(-c2ccccc2)oc2cc(O)cc(O)c12`, the results for the inhibition in assay [1] and in assay [2] were 2.93% and 14.6%, respectively.

As to `COc1ccc(-c2cc(=O)c3c(O)cc(O[C@@H]4O[C@H](CO[C@@H]5O[C@@H](C)[C@H](O)[C@@H](O)[C@H]5O)[C@@H](O)[C@H](O)[C@H]4O)cc3o2)cc1O`, the figures for the inhibition in assay [1] and in assay [2] were 7.92% and 9.59%, respectively.

`COc1cccc2c1C(=O)c1c(O)c3c(c(O)c1C2=O)C[C@@](O)(C(C)=O)C[C@@H]3O[C@H]1C[C@H](N)[C@H](O)[C@H](C)O1`: the inhibition in assay [1] was -0.13%; in assay [2] it was 18.1%.

For the compound `CC[C@@H]1/C=C/C=C/C[C@H](C)[C@H](O)[C@](C)(O)C(=O)[C@H](C)[C@@H](O)[C@H](C)C(=O)[C@H](C)[C@@H](O)[C@H](C)/C=C/C(=O)O[C@H]2[C@@H](C)[C@@H](CC1)O[C@@]1(CC[C@@H](C)[C@@H](C[C@H](C)O)O1)[C@@H]2C`, the inhibition is 1.56% in assay [1] and -5.62% in assay [2].

On to `COc1cc2c3cc1Oc1cc(ccc1O)C[C@@H]1c4c(cc(OC)c(O)c4Oc4ccc(cc4)C[C@@H]3N(C)CC2)CC[N+]1(C)C`, for which the figures for the inhibition in assay [1] and in assay [2] were 3.03% and 5.5%, respectively.

With `CC[C@H](C)C(=O)O[C@H]1CCC=C2C=C[C@H](C)[C@H](CC[C@@H]3C[C@@H](O)CC(=O)O3)[C@H]21`, the figures for the inhibition in assay [1] and in assay [2] were 7.39% and -9.46%, respectively.
